According to patent publication US7064120B2, “Tricyclic pyridyl carboxamides and derivatives thereof tocolytic oxytocin receptor antagonists” (Wyeth, priority 2001, dated 2006):

Molecular target: T1, human oxytocin receptor (Homo sapiens, UniProt P30559)
T1 construct: host or cells: CHO cells, stably transfected (pcDNA3.1 vector)
T1 sequence (P30559 1-389): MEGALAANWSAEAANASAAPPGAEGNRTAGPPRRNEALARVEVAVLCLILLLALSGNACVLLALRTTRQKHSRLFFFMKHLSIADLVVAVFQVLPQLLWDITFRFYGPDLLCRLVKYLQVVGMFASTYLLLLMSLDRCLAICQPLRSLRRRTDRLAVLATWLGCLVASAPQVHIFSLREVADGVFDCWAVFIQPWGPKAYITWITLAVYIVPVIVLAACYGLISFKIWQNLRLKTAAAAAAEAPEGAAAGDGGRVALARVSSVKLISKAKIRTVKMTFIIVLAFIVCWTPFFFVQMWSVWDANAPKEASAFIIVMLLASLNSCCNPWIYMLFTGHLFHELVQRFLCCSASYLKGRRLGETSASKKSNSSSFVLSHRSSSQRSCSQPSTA
Assay: Oxytocin binding in CHO cell membranes expressing human oxytocin receptors ([3H]oxytocin radioligand binding)
Conditions: 100 nM; for inhibition at 0.1 µM: read-out: OT % inhibition @ 100 nM
Protocol: Oxytocin Binding in Chinese Hamster Ovary Cell Membranes Expressing Human Oxytocin Receptors
Cell Culture medium (e.g. 30 mL for 1:30 split) is immediately added and mixed well to inactivate trypsin. 1 mL of detached cells is added to new culture flasks containing fresh Cell Culture medium (e.g. into 25 mL per T-150 flask), and mixed gently. The cells are incubated at 37° C. in 5% CO2. The medium is changed at 3 to 4 days interval (or as appropriate). […] All steps are done under sterile conditions.
The cells are washed twice gently with Hank's Balanced Salt solution (e.g., use 10 mL per T-150 flask). […] The contents are transferred to centrifuge tubes (50 mL size) kept in ice bath. All subsequent steps are done at 4° C. The tubes are centrifuged at 300×g for 15 min (1380 rpm on SORVAL, Model RT6000D, using rotor for 50 mL tubes). The supernatant is discarded and the cells suspended in homogenizing buffer (10 mM Tris-HCl containing 0.25 M sucrose and 1 mM EDTA, pH 7.4) ensuring that the volume of the buffer is about ten times the volume of the cell pellet. The cells are pooled into a centrifuge tube (50 mL) and homogenized with a Polytron at setting 6 for 10 sec. The homogenate is transferred into a Potter-Elvjehm homogenizer and homogenized with 3 strokes. The homogenate is centrifuged at 1500×g for 10 min at 4° C. (3100 rpm using SORVAL, model RT6000D, using a rotor for 50 mL tubes). The pellet is discarded. The supernatant is centrifuged at 100,000×g for 60 min. at 4° C. (Beckman L8-80M ultracentrifuge; spin at 37,500 rpm with rotor type 70 Ti for 50 mL tubes; 38,000 rpm with rotor type 8OTi for 15 mL tubes; or 35,800 rpm with rotor type 45Ti). The supernantant is discarded and the pellet suspended in 3 to 4 mL of Tris buffer (50 mM TRIS-HCl, pH 7.4). The protein content is estimated by the Bradford or Lowry method. The volume of the membrane suspension is adjusted with the membrane buffer (50 mM Tris-HCl containing 0.1% BSA and 0.1 mM PMSF) to give 3.0 mg/mL (or as appropriate) of protein. The membranes are aliquoted and stored at −70° C.
In wells of a 96-well format microtiter plate, is added 90, 110 or 130 μL (to make up a final volume of 200 μL) of assay buffer containing 50 mM of Tris-HCl (pH 7.4), […], 1 mg % aprotinin, 1 mg % leupeptin, 2 mg % 1,10-phenanthroline, 10 mg % trypsin inhibitor, and 0.1 mM PMSF. The inhibitors are added on the day of the experiment. The components are mixed at room temperature, and then kept in ice bath following adjustment of the pH to 7.4. […] For oxytocin and other peptide ligands, 20 μL of 50% DMSO is added and the assay buffer volume is adjusted accordingly. To each well is added 50 μL of frozen membrane suspension thawed immediately prior to use and diluted in assay buffer to the required concentration (equivalent to 25 to 50 μg of protein/well as needed). 20 μL of 8 nM [^3H]oxytocin in the assay buffer, prepared just before use is added and incubated at room temperature for 60 min. shaking the plate on a mechanical shaker for the first 15 min. The incubation is stopped by rapid filtration of the plate contents followed by washing with ice-cold buffer (50 mM Tris-HCl, pH 7.4) using a cell harvester (Tomtek and Printed filtermat-B filter paper). The filter paper is thoroughly dried (7–12 min. in a microwave oven) and impregnated with MeltiLex B/H melt-on scintillation wax sheets and the radioactivity counted in a betaplate scintillation counter.
Binding data is either reported as percent inhibition at a certain concentration or if an IC50 was calculated, as a nanomolar concentration.

inhibition at 0.1 µM [%]	Compound	OT % inhibition @ 100 nM [%]
51	COc1ccccc1-c1ccc(C(=O)N2Cc3ccc(C(=O)NCCc4ccccn4)n3Cc3ccccc32)cc1 [Example 52, 10-[(2′-Methoxy-[1,1′-biphenyl]-4-yl)carbonyl]-N-[2-(2-pyridinyl)ethyl]-10,11-dihydro-5H-pyrrolo[2,1-c][1,4]benzodiazepine-3-carboxamide]	
83	COc1cccc(-c2cc(OC)c(C(=O)N3Cc4ccc(C(=O)N(C)Cc5cccnc5)n4Cc4ccccc43)cc2Cl)c1 [Example 108, 10-[(6-Chloro-3,3′-dimethoxy-[1,1′-biphenyl]-4-yl)carbonyl]-N-methyl-N-(3-pyridinylmethyl)-10,11-dihydro-5H-pyrrolo[2,1-c][1,4]benzodiazepine-3-carboxamide]	
32	COc1cc(C(=O)N2Cc3ccc(C(=O)NCCc4ccccn4)n3Cc3ccccc32)ccc1-c1cccc2ccccc12 [Example 57, 10-[3-Methoxy-4-(naphthalen-1-yl)benzoyl]-N-[2-(2-pyridinyl)ethyl]-10,11-dihydro-5H-pyrrolo[2,1-c][1,4]benzodiazepine-3-carboxamide]	
37	COc1ccccc1-c1ccc(C(=O)N2Cc3ccc(C(=O)NCCc4ccccn4)n3Cc3ccccc32)cc1OC [Example 58, 10-[(2,2′-Dimethoxy-[1,1′-biphenyl]-4-yl)carbonyl]-N-[2-(2-pyridinyl)ethyl]-10,11-dihydro-5H-pyrrolo[2,1-c][1,4]benzodiazepine-3-carboxamide]	
31	COc1cccc(-c2ccc(C(=O)N3Cc4ccc(C(=O)NCc5cccnc5)n4Cc4ccccc43)cc2OC)c1 [Example 46, 10-[(2,3′-Dimethoxy-[1,1′-biphenyl]-4-yl)carbonyl]-N-(3-pyridinylmethyl)-10,11-dihydro-5H-pyrrolo[2,1-c][1,4]benzodiazepine-3-carboxamide]	
24	O=C(c1ccc2n1Cc1ccccc1N(C(=O)c1ccc(-c3cccc4ccccc34)cc1Cl)C2)N1CCN(c2ccncc2)CC1 [Example 124, {10-[2-Chloro-4-(naphthalen-1-yl)benzoyl]-10,11-dihydro-5H-pyrrolo[2,1-c][1,4]benzodiazepin-3-yl}[4-(4-pyridinyl)-1-piperazinyl]methanone]	
58	COc1ccccc1-c1ccc(C(=O)N2Cc3ccc(C(=O)NCCc4ccccn4)n3Cc3ccccc32)cc1C [Example 49, 10-[(2′-Methoxy-2-methyl-[1,1′-biphenyl]-4-yl)carbonyl]-N-[2-(2-pyridinyl)ethyl]-10,11-dihydro-5H-pyrrolo[2,1-c][1,4]benzodiazepine-3-carboxamide]	
41	COc1cc(C(=O)N2Cc3ccc(C(=O)NCc4cccnc4)n3Cc3ccccc32)ccc1-c1ccccc1C [Example 41, 10-[(2-Methoxy-2′-methyl-[1,1′-biphenyl]-4-yl)carbonyl]-N-(3-pyridinylmethyl)-10,11-dihydro-5H-pyrrolo[2,1-c][1,4]benzodiazepine-3-carboxamide]	
50	COc1ccccc1-c1ccc(C(=O)N2Cc3ccc(C(=O)NCc4ccccn4)n3Cc3ccccc32)cc1C [Example 24, 10-[(2′-Methoxy-2-methyl-[1,1′-biphenyl]-4-yl)carbonyl]-N-(2-pyridinylmethyl)-10,11-dihydro-5H-pyrrolo[2,1-c][1,4]benzodiazepine-3-carboxamide]	
64	COc1cc(C(=O)N2Cc3ccc(C(=O)N(C)CCc4ccncc4)n3Cc3ccccc32)ccc1-n1c(C)ccc1C [Example 147, 10-[4-(2,5-Dimethyl-1H-pyrrol-1-yl)-3-methoxybenzoyl]-N-methyl-N-[2-(pyridin-4-yl)ethyl]-10,11-dihydro-5H-pyrrolo[2,1-c][1,4]benzodiazepine-3-carboxamide]	
101	COc1ccccc1-c1ccc(C(=O)N2Cc3ccc(C(=O)N4CCN(c5ccncc5)CC4)n3Cc3ccccc32)cc1 [Example 116, {10-[(2′-Methoxy-[1,1′-biphenyl]-4-yl)carbonyl]-10,11-dihydro-5H-pyrrolo[2,1-c][1,4]benzodiazepin-3-yl}[4-(4-pyridinyl)-1-piperazinyl]methanone]	
88	COc1cccc(-c2ccc(C(=O)N3Cc4ccc(C(=O)N(C)CCc5ccncc5)n4Cc4ccccc43)cc2C)c1 [Example 128, 10-[(3′-Methoxy-2-methyl-[1,1′-biphenyl]-4-yl)carbonyl]-N-methyl-N-[2-(4-pyridinyl)ethyl]-10,11-dihydro-5H-pyrrolo[2,1-c][1,4]benzodiazepine-3-carboxamide]	
96	COc1cccc(-c2ccc(C(=O)N3Cc4ccc(C(=O)N(C)CCc5ccncc5)n4Cc4ccccc43)cc2OC)c1 [Example 135, 10-[(2,3′-Dimethoxy-[1,1′-biphenyl]-4-yl)carbonyl]-N-methyl-N-[2-(4-pyridinyl)ethyl]-10,11-dihydro-5H-pyrrolo[2,1-c][1,4]benzodiazepine-3-carboxamide]	
	COc1cccc(-c2ccc(C(=O)N3Cc4ccc(C(=O)NCc5ccncc5)n4Cc4ccccc43)cc2OC)c1 [Example 98]	39
37	COc1ccccc1-c1ccc(C(=O)N2Cc3ccc(C(=O)NCc4cccnc4)n3Cc3ccccc32)cc1OC [Example 45, 10-[(2,2′-Dimethoxy-[1,1′-biphenyl]-4-yl)carbonyl]-N-(3-pyridinylmethyl)-10,11-dihydro-5H-pyrrolo[2,1-c][1,4]benzodiazepine-3-carboxamide]	
6	Cc1ccccc1-c1ccc(C(=O)N2Cc3ccc(C(=O)NCCc4ccccn4)n3Cc3ccccc32)cc1 [Example 53, 10-[(2′-Methyl-[1,1′-biphenyl]-4-yl)carbonyl]-N-[2-(2-pyridinyl)ethyl]-10,11-dihydro-5H-pyrrolo[2,1-c][1,4]benzodiazepine-3-carboxamide]	
33	COc1cc(-c2ccccc2C)c(Cl)cc1C(=O)N1Cc2ccc(C(=O)NCc3cccnc3)n2Cc2ccccc21 [Example 42, 10-[(6-Chloro-3-methoxy-2′-methyl-[1,1′-biphenyl]-4-yl)carbonyl]-N-(3-pyridinylmethyl)-10,11-dihydro-5H-pyrrolo[2,1-c][1,4]benzodiazepine-3-carboxamide]	
92	COc1cc(-c2ccccc2C)c(Cl)cc1C(=O)N1Cc2ccc(C(=O)N(C)Cc3cccnc3)n2Cc2ccccc21 [Example 107, 10-[(6-Chloro-3-methoxy-2′-methyl-[1,1′-biphenyl]-4-yl)carbonyl]-N-methyl-N-(3-pyridinylmethyl)-10,11-dihydro-5H-pyrrolo[2,1-c][1,4]benzodiazepine-3-carboxamide]	
50	COc1cc(C(=O)N2Cc3ccc(C(=O)NCc4ccccn4)n3Cc3ccccc32)ccc1-c1ccccc1C [Example 28, 10-[(2-Methoxy-2′-methyl-[1,1′-biphenyl]-4-yl)carbonyl]-N-(2-pyridinylmethyl)-10,11-dihydro-5H-pyrrolo[2,1-c][1,4]benzodiazepine-3-carboxamide]	
